# Experimental data taken from patent US20230085307A1, “PYRIDAZINONE COMPOUND AND HERBICIDE” (NISSAN CHEMICAL CORPORATION, priority 2019, published 2023).
# How the values were obtained:
# [1] = test system: late watergrass; assay: Test Example 1: herbicidal activity, application before weed generation under submerged conditions (Table 16, symbol A); format: in vivo, late watergrass (Echinochloa oryzicola); settings: 320 g/ha applied herbicide
# Procedure, shortened: (§1)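 Alluvial soil was flooded to 4 cm depth, weed seeds were sown mixed and 2.5-leaf rice seedlings were transplanted. On sowing day, the compound's emulsion, diluted in water to a set dose, was applied to the water surface. Plants grew at 25–30 °C and were scored 0–5 after three weeks.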
# [2] = test system: Japanese bulrush; assay: Test Example 1: herbicidal activity, application before weed generation under submerged conditions (Table 16, symbol B); format: in vivo, Japanese bulrush (Schoenoplectus juncoides); settings: 320 g/ha applied herbicide
# Procedure, shortened: as §1
# [3] = test system: oval-leafed pondweed; assay: Test Example 1: herbicidal activity, application before weed generation under submerged conditions (Table 16, symbol C); format: in vivo, oval-leafed pondweed (Monochoria vaginalis); settings: 320 g/ha applied herbicide
# Procedure, shortened: as §1
# [4] = test system: southern crabgrass; assay: Test Example 5: herbicidal effect by foliage application, plastic box (Table 20, symbol F); format: in vivo, southern crabgrass (Digitaria ciliaris); settings: foliage application
# Procedure, shortened: (§2)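 Post-emergence foliar test in sterilized diluvial soil. Compound applied as water-diluted emulsion at a predetermined rate to 14-day-old plants; evaluation at three weeks.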
# [5] = test system: green foxtail; assay: Test Example 5: herbicidal effect by foliage application, plastic box (Table 20, symbol G); format: in vivo, green foxtail (Setaria viridis); settings: foliage application
# Procedure, shortened: as §2
# [6] = test system: barnyard grass; assay: Test Example 5: herbicidal effect by foliage application, plastic box (Table 20, symbol H); format: in vivo, barnyard grass (Echinochloa crus-galli); settings: foliage application
# Procedure, shortened: as §2
# [7] = test system: wild oat; assay: Test Example 5: herbicidal effect by foliage application, plastic box (Table 20, symbol I); format: in vivo, wild oat (Avena fatua); settings: foliage application
# Procedure, shortened: as §2
# [8] = test system: blackgrass; assay: Test Example 5: herbicidal effect by foliage application, plastic box (Table 20, symbol J); format: in vivo, blackgrass (Alopecurus myosuroides); settings: foliage application
# Procedure, shortened: as §2
# [9] = test system: Italian ryegrass; assay: Test Example 5: herbicidal effect by foliage application, plastic box (Table 20, symbol K); format: in vivo, Italian ryegrass (Lolium multiflorum); settings: foliage application
# Procedure, shortened: as §2
# [10] = test system: windgrass; assay: Test Example 5: herbicidal effect by foliage application, plastic box (Table 20, symbol L); format: in vivo, windgrass (Apera spica-venti); settings: foliage application
# Procedure, shortened: as §2
# [11] = test system: velvetleaf; assay: Test Example 5: herbicidal effect by foliage application, plastic box (Table 20, symbol M); format: in vivo, velvetleaf (Abutilon theophrasti); settings: foliage application
# Procedure, shortened: as §2
# [12] = test system: redroot pigweed; assay: Test Example 5: herbicidal effect by foliage application, plastic box (Table 20, symbol N); format: in vivo, redroot pigweed (Amaranthus retroflexus); settings: foliage application
# Procedure, shortened: as §2
# [13] = test system: lambsquarters; assay: Test Example 5: herbicidal effect by foliage application, plastic box (Table 20, symbol O); format: in vivo, lambsquarters (Chenopodium album); settings: foliage application
# Procedure, shortened: as §2
# [14] = test system: chickweed; assay: Test Example 5: herbicidal effect by foliage application, plastic box (Table 20, symbol P); format: in vivo, common chickweed (Stellaria media); settings: foliage application
# Procedure, shortened: as §2
# [15] = test system: false cleavers; assay: Test Example 5: herbicidal effect by foliage application, plastic box (Table 20, symbol Q); format: in vivo, false cleavers (Galium spurium); settings: foliage application
# Procedure, shortened: as §2
# [16] = test system: persian speedwell; assay: Test Example 5: herbicidal effect by foliage application, plastic box (Table 20, symbol R); format: in vivo, Persian speedwell (Veronica persica); settings: foliage application
# Procedure, shortened: as §2
# [17] = test system: barnyard grass; assay: Test Example 3: herbicidal effect by foliage application, Wagner pot (Table 18, symbol H); format: in vivo, barnyard grass (Echinochloa crus-galli)
# Procedure, shortened: (§3)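 Plants were sown in alluvial soil held under 0.1–0.5 cm standing water and grown 14 days in a greenhouse at 25–30 °C. An emulsifiable formulation, water-diluted to the set dose, was then sprayed onto the foliage, and effects were scored three weeks later using previously defined criteria.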
# [18] = test system: Chinese sprangletop; assay: Test Example 3: herbicidal effect by foliage application, Wagner pot (Table 18, symbol D); format: in vivo, chinese sprangletop (Leptochloa chinensis)
# Procedure, shortened: as §3
# [19] = test system: rice flat sedge; assay: Test Example 3: herbicidal effect by foliage application, Wagner pot (Table 18, symbol E); format: in vivo, rice flat sedge (Cyperus iria)
# Procedure, shortened: as §3
# [20] = 320 g/ha, three weeks after application
# [21] = AAH 320 g/ha, three weeks after application
# [22] = amount of applied herbicide 320 g/ha
# [23] = AAH 320 g/ha, evaluated three weeks after application
smiles,measurement,setting,value
CCCCCCOc1ccc(-c2sc3ccccc3c2-c2c(OC(=O)CCC)c(C)nn(C)c2=O)cc1 [1-029],Herbicidal effect on A: late watergrass (grade 0-5),[1],0 (Herbicidal rate of 5% or less (almost no effect))
same,Herbicidal effect on B: Japanese bulrush (grade 0-5),[2],1 (Herbicidal rate of 5% or more and less than 20%)
same,Herbicidal effect on C: oval-leafed pondweed (grade 0-5),[3],2 (Herbicidal rate of 20% or more and less than 40%)
same,"herbicidal effect grade, F: southern crabgrass",[4]; [20],0 (Herbicidal rate of 5% or less (almost no effect))
same,"herbicidal effect grade, G: green foxtail",[5]; [20],0 (Herbicidal rate of 5% or less (almost no effect))
same,"herbicidal effect grade, H: barnyard grass",[6]; [20],0 (Herbicidal rate of 5% or less (almost no effect))
same,"herbicidal effect grade, I: wild oat",[7]; [20],0 (Herbicidal rate of 5% or less (almost no effect))
same,"herbicidal effect grade, J: blackgrass",[8]; [20],0 (Herbicidal rate of 5% or less (almost no effect))
same,"herbicidal effect grade, K: Italian ryegrass",[9]; [20],0 (Herbicidal rate of 5% or less (almost no effect))
same,"herbicidal effect grade, L: windgrass",[10]; [20],0 (Herbicidal rate of 5% or less (almost no effect))
same,"herbicidal effect grade, M: velvetleaf",[11]; [20],2 (Herbicidal rate of 20% or more and less than 40%)
same,"herbicidal effect grade, N: redroot pigweed",[12]; [20],4 (Herbicidal rate of 70% or more and less than 90%)
same,"herbicidal effect grade, O: lambsquarters",[13]; [20],2 (Herbicidal rate of 20% or more and less than 40%)
same,"herbicidal effect grade, P: chickweed",[14]; [20],5 (Herbicidal rate of 90% or more (almost completely withered))
same,"herbicidal effect grade, Q: false cleavers",[15]; [20],1 (Herbicidal rate of 5% or more and less than 20%)
same,"herbicidal effect grade, R: persian speedwell",[16]; [20],0 (Herbicidal rate of 5% or less (almost no effect))
Cc1ccccc1C(=O)Oc1c(C)nn(C)c(=O)c1-c1c(-c2ccc3c(c2)OCCO3)sc2ccccc12 [1-093],Herbicidal effect on A: late watergrass (grade 0-5),[1],3 (Herbicidal rate of 40% or more and less than 70%)
same,Herbicidal effect on B: Japanese bulrush (grade 0-5),[2],1 (Herbicidal rate of 5% or more and less than 20%)
same,Herbicidal effect on C: oval-leafed pondweed (grade 0-5),[3],0 (Herbicidal rate of 5% or less (almost no effect))
same,"herbicidal effect on H (barnyard grass), rating 0-5",[17]; 320 g/ha,3 (Herbicidal rate of 40% or more and less than 70%)
same,"herbicidal effect on D (Chinese sprangletop), rating 0-5",[18]; 320 g/ha,0 (Herbicidal rate of 5% or less (almost no effect))
same,"herbicidal effect on E (rice flat sedge), rating 0-5",[19]; 320 g/ha,5 (Herbicidal rate of 90% or more (almost completely withered))
same,"F: southern crabgrass, herbicidal effect",[4]; [21],0 (Herbicidal rate of 5% or less (almost no effect))
same,"G: green foxtail, herbicidal effect",[5]; [21],0 (Herbicidal rate of 5% or less (almost no effect))
same,"H: barnyard grass, herbicidal effect",[6]; [21],0 (Herbicidal rate of 5% or less (almost no effect))
same,"I: wild oat, herbicidal effect",[7]; [21],0 (Herbicidal rate of 5% or less (almost no effect))
same,"J: blackgrass, herbicidal effect",[8]; [21],0 (Herbicidal rate of 5% or less (almost no effect))
same,"K: Italian ryegrass, herbicidal effect",[9]; [21],0 (Herbicidal rate of 5% or less (almost no effect))
same,"L: windgrass, herbicidal effect",[10]; [21],0 (Herbicidal rate of 5% or less (almost no effect))
same,"M: velvetleaf, herbicidal effect",[11]; [21],5 (Herbicidal rate of 90% or more (almost completely withered))
same,"N: redroot pigweed, herbicidal effect",[12]; [21],3 (Herbicidal rate of 40% or more and less than 70%)
same,"O: lambsquarters, herbicidal effect",[13]; [21],2 (Herbicidal rate of 20% or more and less than 40%)
same,"P: chickweed, herbicidal effect",[14]; [21],1 (Herbicidal rate of 5% or more and less than 20%)
same,"Q: false cleavers, herbicidal effect",[15]; [21],0 (Herbicidal rate of 5% or less (almost no effect))
same,"R: persian speedwell, herbicidal effect",[16]; [21],4 (Herbicidal rate of 70% or more and less than 90%)
C=CCOc1cccc(-c2sc3ccc(F)cc3c2-c2c(O)c(C)nn(C)c2=O)c1 [2-269],Herbicidal effect on A: late watergrass (grade 0-5),[1],3 (Herbicidal rate of 40% or more and less than 70%)
same,Herbicidal effect on B: Japanese bulrush (grade 0-5),[2],3 (Herbicidal rate of 40% or more and less than 70%)
same,Herbicidal effect on C: oval-leafed pondweed (grade 0-5),[3],3 (Herbicidal rate of 40% or more and less than 70%)
same,herbicidal effect on H: barnyard grass,[17]; [22],3 (Herbicidal rate of 40% or more and less than 70%)
same,herbicidal effect on D: Chinese sprangletop,[18]; [22],0 (Herbicidal rate of 5% or less (almost no effect))
same,herbicidal effect on E: rice flat sedge,[19]; [22],3 (Herbicidal rate of 40% or more and less than 70%)
same,"F: southern crabgrass, herbicidal effect (criteria 0-5)",[4]; [23],0 (Herbicidal rate of 5% or less (almost no effect))
same,"G: green foxtail, herbicidal effect (criteria 0-5)",[5]; [23],0 (Herbicidal rate of 5% or less (almost no effect))
same,"H: barnyard grass, herbicidal effect (criteria 0-5)",[6]; [23],0 (Herbicidal rate of 5% or less (almost no effect))
same,"I: wild oat, herbicidal effect (criteria 0-5)",[7]; [23],0 (Herbicidal rate of 5% or less (almost no effect))
same,"J: blackgrass, herbicidal effect (criteria 0-5)",[8]; [23],0 (Herbicidal rate of 5% or less (almost no effect))
same,"K: Italian ryegrass, herbicidal effect (criteria 0-5)",[9]; [23],0 (Herbicidal rate of 5% or less (almost no effect))
same,"L: windgrass, herbicidal effect (criteria 0-5)",[10]; [23],0 (Herbicidal rate of 5% or less (almost no effect))
same,"M: velvetleaf, herbicidal effect (criteria 0-5)",[11]; [23],0 (Herbicidal rate of 5% or less (almost no effect))
same,"N: redroot pigweed, herbicidal effect (criteria 0-5)",[12]; [23],0 (Herbicidal rate of 5% or less (almost no effect))
same,"O: lambsquarters, herbicidal effect (criteria 0-5)",[13]; [23],0 (Herbicidal rate of 5% or less (almost no effect))
same,"P: chickweed, herbicidal effect (criteria 0-5)",[14]; [23],3 (Herbicidal rate of 40% or more and less than 70%)
same,"Q: false cleavers, herbicidal effect (criteria 0-5)",[15]; [23],0 (Herbicidal rate of 5% or less (almost no effect))
same,"R: persian speedwell, herbicidal effect (criteria 0-5)",[16]; [23],1 (Herbicidal rate of 5% or more and less than 20%)
